Assay results taken from US12043599B2, “Herbicidal compounds” (SYNGENTA PARTICIPATIONS AG, priority 2018, dated 2024).

Tests used:
Assay type in all cases: in vivo
Conditions in all cases: 250 g/h, evaluated after 13 days
[1] = tested on: Alopecurus myosuroides (ALOMY); experiment: Pre-emergence herbicidal glasshouse test, percentage damage
Procedure: (§1) Seeds of a variety of test species are sown in standard soil in pots (Lolium perenne (LOLPE), Setaria faberi (SETFA), Alopecurus myosuroides (ALOMY), Echinochloa crus-galli (ECHCG), Avena fatua (AVEFA)). After cultivation for one day (pre-emergence) or after 8 days cultivation (post-emergence) under controlled conditions in a glasshouse (at 24/16° C., day/night; 14 hours light; 65% humidity), the plants are sprayed with an aqueous spray solution derived from the formulation of the technical active ingredient in acetone/water (50:50) solution containing 0.5% Tween 20 (polyoxyethelyene sorbitan monolaurate, CAS RN 9005-64-5). Compounds are applied at […]. The test plants are then grown in a glasshouse under controlled conditions in a glasshouse (at 24/16° C., day/night; 14 hours light; 65% humidity) and watered twice daily. After 13 days for pre and post-emergence, the test is evaluated for the percentage damage caused to the plant. The biological activities are shown in the following table on a five point scale (5=80-100%; 4=60-79%; 3=40-59%; 2=20-39%; 1=0-19%).

[2] = tested on: Avena fatua (AVEFA); experiment: as above
Procedure: as §1

[3] = tested on: Echinochloa crus-galli (ECHCG); experiment: as above
Procedure: as §1

[4] = tested on: Lolium perenne (LOLPE); experiment: as above
Procedure: as §1

[5] = tested on: Setaria faberi (SETFA); experiment: as above
Procedure: as §1

[6] = tested on: Setaria faberi (SETFA); experiment: Post-emergence herbicidal glasshouse test, percentage damage
Procedure: as §1
Using procedures outlines above, wheat and barley crop plants and a weed species (SETFA) are treated post-emergence with compound A11 of the present invention or comparator compound C1 (Compound A-38 from WO2014/096289) at the application rates indicated. The compounds were also applied to wheat in conjunction with the safener compound cloquintocet-mexyl (CQC) at 50 g/ha.

[7] = tested on: Avena fatua (AVEFA); experiment: as above
Procedure: as §1

[8] = tested on: Echinochloa crus-galli (ECHCG); experiment: as above
Procedure: as §1

[9] = tested on: Lolium perenne (LOLPE); experiment: as above
Procedure: as §1

SMILES | ALOMY PRE percentage damage (five point scale) [1] | AVEFA PRE percentage damage (five point scale) [2] | ECHCG PRE percentage damage (five point scale) [3] | LOLPE PRE percentage damage (five point scale) [4] | SETFA PRE percentage damage (five point scale) [5] | SETFA POST percentage damage (five point scale) [6] | AVEFA POST percentage damage (five point scale) [7] | ECHCG POST percentage damage (five point scale) [8] | LOLPE POST percentage damage (five point scale) [9]
CC#Cc1cc(C)c(C2=C(OC(=O)OC)CC3(CCN(C(=O)C4COC4)CC3)CC2=O)c(C)c1 [Compound P44] | 5 (5=80-100%) | 5 (5=80-100%) | 5 (5=80-100%) | 5 (5=80-100%) | 5 (5=80-100%) | 5 (5=80-100%) | 5 (5=80-100%) | 5 (5=80-100%) | 5 (5=80-100%)
CC#Cc1cc(C)c(C2=C(OC(=O)OC)CC3(CCN(C(=O)c4cnccn4)CC3)CC2=O)c(C)c1 [Compound P38] | 5 (5=80-100%) | 5 (5=80-100%) | 5 (5=80-100%) | 5 (5=80-100%) | 5 (5=80-100%) | 5 (5=80-100%) | 5 (5=80-100%) | 5 (5=80-100%) | 5 (5=80-100%)
CC#Cc1cc(C)c(C2=C(OC(=O)OC)CC3(CCN(C(=O)C4CCOCC4)CC3)CC2=O)c(C)c1 [Compound P40] | 5 (5=80-100%) | 5 (5=80-100%) | 5 (5=80-100%) | 5 (5=80-100%) | 5 (5=80-100%) | 5 (5=80-100%) | 5 (5=80-100%) | 5 (5=80-100%) | 5 (5=80-100%)
CC#Cc1cc(C)c(C2=C(OC(=O)OC)CC3(CCN(C(=O)C4=NOC(C)(C)C4)CC3)CC2=O)c(C)c1 [Compound P39] | 5 (5=80-100%) | 5 (5=80-100%) | 5 (5=80-100%) | 5 (5=80-100%) | 5 (5=80-100%) | 5 (5=80-100%) | 5 (5=80-100%) | 5 (5=80-100%) | 5 (5=80-100%)
CC#Cc1cc(C)c(C2=C(OC(=O)OC)CC3(CCN(C(=O)CC#N)CC3)CC2=O)c(C)c1 [Compound P43] | 5 (5=80-100%) | 5 (5=80-100%) | 5 (5=80-100%) | 5 (5=80-100%) | 5 (5=80-100%) | 5 (5=80-100%) | 5 (5=80-100%) | 4 (4=60-79%) | 5 (5=80-100%)
CC#Cc1cc(C)c(C2=C(OC(=O)OC)CC3(CCN(C(=O)C4CC4)CC3)CC2=O)c(C)c1 [Compound P42] | 5 (5=80-100%) | 5 (5=80-100%) | 5 (5=80-100%) | 5 (5=80-100%) | 5 (5=80-100%) | 5 (5=80-100%) | 5 (5=80-100%) | 5 (5=80-100%) | 5 (5=80-100%)
CC#Cc1cc(C)c(C2=C(OC(=O)OC)CC3(CCN(C(=O)c4ccncn4)CC3)CC2=O)c(C)c1 [Compound P37] | 5 (5=80-100%) | 5 (5=80-100%) | 5 (5=80-100%) | 5 (5=80-100%) | 5 (5=80-100%) | 5 (5=80-100%) | 5 (5=80-100%) | 5 (5=80-100%) | 5 (5=80-100%)
CC#Cc1cc(C)c(C2=C(OC(=O)OC)CC3(CCN(C(=O)c4cccnc4)CC3)CC2=O)c(C)c1 [Compound P35] | 5 (5=80-100%) | 5 (5=80-100%) | 5 (5=80-100%) | 5 (5=80-100%) | 5 (5=80-100%) | 5 (5=80-100%) | 5 (5=80-100%) | 5 (5=80-100%) | 5 (5=80-100%)
CC#Cc1cc(C)c(C2C(=O)CC3(CCN(C(=O)c4nc(OC)n(C)n4)CC3)CC2=O)c(C)c1 [Compound A105] | 5 (5=80-100%) | 5 (5=80-100%) | 5 (5=80-100%) | 5 (5=80-100%) | 5 (5=80-100%) | 5 (5=80-100%) | 5 (5=80-100%) | 3 (3=40-59%) | 5 (5=80-100%)
CC#Cc1cc(C)c(C2C(=O)CC3(CCN(S(=O)(=O)c4cnccn4)CC3)CC2=O)c(C)c1 [Compound A107] |  | 4 (4=60-79%) | 3 (3=40-59%) | 5 (5=80-100%) | 4 (4=60-79%) | 5 (5=80-100%) | 5 (5=80-100%) | 5 (5=80-100%) | 5 (5=80-100%)
CC#Cc1cc(C)c(C2C(=O)CC3(CCN(C(=O)c4ncccc4C#N)CC3)CC2=O)c(C)c1 [Compound A114] |  | 4 (4=60-79%) | 5 (5=80-100%) | 5 (5=80-100%) | 5 (5=80-100%) | 5 (5=80-100%) | 5 (5=80-100%) | 5 (5=80-100%) | 5 (5=80-100%)
CC#Cc1cc(C)c(C2C(=O)CC3(CCN(C(=O)c4cc(C)nc(C)n4)CC3)CC2=O)c(C)c1 [Compound A122] |  | 5 (5=80-100%) | 5 (5=80-100%) | 5 (5=80-100%) | 5 (5=80-100%) | 5 (5=80-100%) | 5 (5=80-100%) | 5 (5=80-100%) | 5 (5=80-100%)
CC#Cc1cc(C)c(C2C(=O)CC3(CCN(C(=O)c4nnc(C)o4)CC3)CC2=O)c(C)c1 [Compound A119] |  | 5 (5=80-100%) | 5 (5=80-100%) | 5 (5=80-100%) | 5 (5=80-100%) | 5 (5=80-100%) | 5 (5=80-100%) | 5 (5=80-100%) | 5 (5=80-100%)
CC#Cc1cc(C)c(C2=C(OC(C)=O)CC3(CCN(C(=O)CC#N)CC3)CC2=O)c(C)c1 [Compound P41] | 5 (5=80-100%) | 5 (5=80-100%) | 5 (5=80-100%) | 5 (5=80-100%) | 5 (5=80-100%) | 5 (5=80-100%) | 5 (5=80-100%) | 5 (5=80-100%) | 5 (5=80-100%)
